In US9332753B2, “Plant volatiles based on R-curcumene” (Keygene N.V., priority 2009, dated 2016):
Entries after “also recorded” stand apart in the source; their conditions may differ.

What was measured:
B. tabaci antennae = assay: Electroantennography (EAG); set-up: species or system Bemisia tabaci
Protocol: Electroantennography (EAG) was employed to confirm the responsiveness of the atennae to 10-3 dilution in paraffin oil (Uvasol, Merck) of the chemicals described. Small pieces of filter paper (2 cm2; Schleicher & Schuell, Dassel, Germany) were soaked with 100 μl of the standard dilution or paraffin oil only (control). The filter paper was inserted into a 10-ml glass syringe (Poulten & Graf GmbH, Wertheim, Germany). A reproducible stimulus was supplied by puffing 5 ml of air over the antenna (Schutz et al., 1999). The EAG response was recorded for each standard dilution. The response to paraffin oil was considered as a negative control and was subtracted from all the reported EAG measurements.

B. tabaci [1] = assay: Free choice bioassay with pure volatiles or mixtures added to one of four cv Moneymaker plants; type: in vivo, Bemisia tabaci biotype Q (Almeria population); details: for behavioural effect (significance of effect on B. tabaci behaviour in choice-assays): significance stars, key not given; for effect on whitefly behaviour: one of four Moneymaker plants treated
Description: For bioassays with headspace (total headspace or single compounds) four potted tomato plants (S. esculentum cv Moneymaker) were placed in a square setup at a distance of 50 cm. One hundred and fifty adult whiteflies were released and recorded as described above. To test the effect of selected headspace components on repellence, synthetic standards (FLUKA) were applied to either 10 filter-papers discs (Whatman, 25 mm diameter) or 10 rubber septa (Sigma Aldrich, Z167258). Prior to loading, the septa were placed in CH2Cl2 for 24 h and air-dried for 3 days (Heath et al., 1986). The paper discs or septa containing volatiles were attached to one of the four plants with metal wire. The position of the treated tomato was randomised. Five minutes after placing the volatiles on the plant, whiteflies were released. For each component at least 8 replications were carried out. Treatments were administered in a setup in which compounds were always added to the same plant in comparison to 3 plants with empty carriers. Prior to each assay with volatiles, the experiment was done with the 4 plants in an untreated setup, in the same position to allow comparison in the same background.
Host preference with and without manipulated headspace by B. tabaci was explored in free choice assays. In each setup four cultivated tomatoes (cv. Moneymaker) were tested as described earlier. For the bioassays with volatiles rubber septa (Sigma Aldrich Z167258) were extracted with CH2Cl2 for 24 hours and dried to the air for 3 days. The desired blend of volatiles was added to the rubber septa in 100 μl hexane. Bioassays with pure components, or mixtures of pure components were carried out as described above.
To positively confirm the correlation between the 7 candidate components and B. tabaci behaviour, host preference was assayed in bioassays with pure components. The desired (blend of) pure volatile chemicals were added, as described above, to the Moneymaker background on filter paper cards. […] The percentage of whiteflies visiting the treated plant decreased with 44% on average (p<0.001) (FIG. 2a) while the untreated plants harboured increased numbers of B. tabaci. […] To assess whether the sum of these three components would yield a greater effect than p-cymene alone, a mixture of p-cymene: gamma-terpinene: beta-myrcene in the same ratio as found in accession LA2560 (1:12:3) was tested. […] Finally, the sesquiterpenes were tested, tomato-derived 7-epi-zingiberene as well as its oxidation product R-curcumene, and zingiberene and its oxidation product S-crucume.

B. tabaci [2] = assay: Correlation of identified headspace volatiles with whitefly repellence ranking (stepwise linear regression, MANOVA); set-up: species or system Bemisia tabaci biotype Q; details: for Effect (semiochemical associated to B. tabaci repellence or attraction): first Table 5; for association (B. tabaci repellence or attraction): second Table 5; for Effect on insects: volatile related to whitefly repellence or attraction (Table 1)
Description: In a large experiment (see Example 2), the headspace of 16 wild tomato accessions and 5 cultivated tomato lines were sampled and analyzed (6 repeats). In total 51 compounds were identified to be present in the captured headspace. Furthermore, the level of repellency/attraction of each of the 21 tomato accessions was established in free choice bioassays with B. tabaci (biotype Q), using a ranking scale of 1-7 (1=highest repellency to 7=lowest repellency). Next, the identified volatile compounds were correlated to the repellency/attraction score of each tomato accession through a linear regression analysis.
The headspace of 16 wild tomatoes and 5 cultivated tomatoes (Table 4) was collected. Undisturbed 3-weeks old tomato plants were transferred to 40-L desiccators. The headspace was sampled during 24 h including a 16 h light period, by trapping of the volatile components as described above. […] Each accession was sampled 6 times.
In a statistical analysis the correlation between the identified components of the tomato headspace and the ranking of whitefly repellence measured in the bioassays was made. Using two approaches, a stepwise-linear regression analysis and a MANOVA, 8 volatiles were identified to be correlated to whitefly repellence, whereas 24 other volatile compounds were eliminated as non-relevant for repellency or attraction.

[3] = system: adult whiteflies B. tabaci; details: cited from earlier work
[4] = system: fourth instar larvae of Colorado potato beetle; details: cited from earlier work
[5] = Conversion on exposure to air; type: physicochemical
[6] = system: pests of cut flowers (e.g. B. tabaci); details: fumigant, 10-20 mg/l, after 2-4 hours of exposure; cited from earlier work
[7] = responses of B. tabaci antennae
[8] = n = 5, mean response and scatter, 10^-3 dilution in paraffin oil

SMILES | antennal response (B. tabaci antennae; [7]) | behavioural effect (significance of effect on B. tabaci behaviour in choice-assays) (B. tabaci [1]) | correlation with repellence or attraction of tomato accessions (B. tabaci [2]) | Effect (semiochemical associated to B. tabaci repellence or attraction) (B. tabaci [2]) | association (B. tabaci repellence or attraction) (B. tabaci [2]) | Effect on insects (B. tabaci [2]) | toxic effect [3] | toxic effect [4] | stability when exposed to air [5] | antennal response (B. tabaci antennae; [8]) | effect on whitefly behaviour (B. tabaci [1]) | mortality [6] | antennal recognition / sensitivity (B. tabaci antennae; electroantennography) | decrease of percentage of whiteflies visiting the treated plant (B. tabaci [1]; on average, vs same plant in untreated setup, p-cymene 10 μg, mixture ratio 1:12:3) [%]
CC1=CC2C(CC1)C2(C)C (stereo not shown) [2-carene] | 3.9 mV | ns | significantly correlated to the more attractive cultivated S. lycopersicum plants | attraction | attraction | Attractant |  |  |  |  |  |  |  | 
CCCCCCCCCCCC(C)=O [2-tridecanone] |  |  |  |  |  |  | toxic effect |  |  |  |  |  |  | 
CCCCCCCCCC(C)=O [2-undecanone] |  |  |  |  |  |  |  | toxic effect |  |  |  |  |  | 
CC(C)=CCC[C@@H](C)[C@@H]1C=CC(C)=CC1 [7-epi-zingiberene] | 2.3 mV |  | appear to be responsible for rendering the S. habrochaites (former typicum) more unattractive | repellence | repellence | Repellent |  |  | rapidly converted to R- and S-curcumene respectively | 23 (0-53) μV | clear repellent effect; also recorded: very effective in reducing the number of whitefly visitations |  |  | 
CC1=CCC(C(C)C)C=C1 (stereo not drawn) [Alpha-phellandrene] | 2.2 mV |  | repellent compounds linked to S. pennelli |  | repellence | Repellent |  |  |  |  |  |  |  | 
CC1=CC=C(C(C)C)CC1 [Alpha-terpinene] | 4.1 mV |  | repellent compounds linked to S. pennelli |  | repellence | Repellent |  |  |  |  |  |  |  | 
CC12CCC(CC1)C(C)(C)O2 [Cineole] |  |  |  |  |  |  |  |  |  |  |  | caused mortality |  | 
CC(C)=CCC[C@@H](C)c1ccc(C)cc1 [R-curcumene] | 5.0 mV |  | appear to be responsible for rendering the S. habrochaites (former typicum) more unattractive | repellence | repellence | Repellent |  |  |  | 50 (8-148) μV | clear repellent effect; also recorded: repelled |  | highest sensitivity | 
CC(C)=CCC[C@H](C)c1ccc(C)cc1 [S-curcumene] | 2.7 mV |  |  | repellence | repellence | Repellent |  |  |  | 27 (3-60) μV | did not appear to repel |  |  | 
C=CC(=C)CCC=C(C)C [beta-myrcene] | ns | ns | repellent compounds linked to S. pennelli | repellence | repellence | Repellent |  |  |  |  | did not influence whitefly behaviour |  |  | 
C=C1C=CC(C(C)C)CC1 (stereo not drawn) [beta-phellandrene] | 2.5 mV | ns | significantly correlated to the more attractive cultivated S. lycopersicum plants | attraction | attraction | Attractant |  |  |  |  | decreased tomato attractiveness significantly |  |  | 
CC1=CCC(C(C)C)=CC1 [gamma-terpinene] | 1.9 mV | ns | repellent compounds linked to S. pennelli | repellence | repellence | Repellent |  |  |  |  |  |  |  | 
C=C(C)[C@H]1CC=C(C)CC1 [limonene] | 3.5 mV | ns | significantly correlated to the more attractive cultivated S. lycopersicum plants | attraction | attraction | Attractant |  |  |  |  |  |  |  | 
Cc1ccc(C(C)C)cc1 [para-cymene] | 2.4 mV |  | repellent compounds linked to S. pennelli | repellence | repellence | Repellent |  |  |  |  |  |  |  | 44
C=CCc1ccc2c(c1)OCO2 [safrole] |  |  |  |  |  |  |  |  |  |  |  | caused mortality |  | 
CC(C)=CCC[C@H](C)[C@@H]1C=CC(C)=CC1 [zingiberene] | 2.1 mV |  |  | repellence | repellence | Repellent |  |  | rapidly converted to R- and S-curcumene respectively | 21 (5-30) μV | did not appear to be repelled |  |  | 
